Our source for the Kd values is patent publication US11867696B2, “Antigen-coupled immunoreagents” (CELL IDX, INC., priority 2015, dated 2024).

Where no end group is shown, it is not given here. [ ]: non-standard residue; d: D form. The star is where a group is joined. AOA = aminooxyacetyl (N-terminus modified with aminooxyacetamide), NOCC(=O)*; pY = N[C@@H](Cc1ccc(OP(=O)(O)O)cc1)C(=O)O

The target of this experiment is corresponding anti-peptide antibody. Nature of the experiment: Dissociation constants (KD) between peptide and its corresponding antibody, ForteBio instrument. The class given is binding, rabbit. The source says:
Goat anti-mouse and goat anti-rabbit antibodies were purchased from ImmunoReagents, Inc. (Raleigh, NC). Rabbit monoclonal anti-estrogen receptor (ER), anti-progesterone receptor (PR) and anti-HER2/neu receptor (HER2) antibodies were purchased from Epitomics, Inc. (Fremont, CA). Mouse anti-Ki67 was purchased from BD Biosciences, San Diego, CA Rabbit monoclonal anti-peptide antibodies against PEP1, PEP2, PEP3, PEP4, and PEP5 were obtained from AvantGen, Inc. (San Diego, CA).
The “AOA” group (aminooxyacetamide) was used to attach the peptide to the 4FB-modified primary antibody. Also shown in Table 1 are the dissociation constants (KD) between peptide and its corresponding antibody. These values were obtained using a ForteBio instrument (www.fortebio.com).
“AOA-DATNVGDEGGFAPNILENK ({AOA}-DATNVGDEGGFAPNILENK) [PEP3]” came in with an equilibrium dissociation constant (Kd) of 0.09 nM.
The substance “AOA-DITSDTSGDFR ({AOA}-DITSDTSGDFR) [PEP2]” returned a Kd of 0.16 nM.
Regarding “AOA-ETSGLQEQRNHLQGK-NH2 (HELM PEPTIDE1{[NOCC(=O)[*:2]].E.T.S.G.L.Q.E.Q.R.N.H.L.Q.G.K.[am]}$$$$V2.0; SMILES CC(C)C[C@H](NC(=O)CNC(=O)[C@H](CO)NC(=O)[C@@H](NC(=O)[C@H](CCC(=O)O)NC(=O)CON)[C@@H](C)O)C(=O)N[C@@H](CCC(N)=O)C(=O)N[C@@H](CCC(=O)O)C(=O)N[C@@H](CCC(N)=O)C(=O)N[C@@H](CCCNC(=N)N)C(=O)N[C@@H](CC(N)=O)C(=O)N[C@@H](Cc1c[nH]cn1)C(=O)N[C@@H](CC(C)C)C(=O)N[C@@H](CCC(N)=O)C(=O)NCC(=O)N[C@@H](CCCCN)C(N)=O) [PEP6]”, binding was characterised by a dissociation constant (Kd) of 0.02 nM.
In turn, “AOA-GLEPGQEYNVLLTAEK ({AOA}-GLEPGQEYNVLLTAEK) [PEP4]” registered a dissociation constant Kd of 0.09 nM. This Kd lies about 4.5-fold higher than the previous one.
As for “AOA-LALQAQPVPDELVTK ({AOA}-LALQAQPVPDELVTK) [PEP1]”, the Kd was found to be 0.09 nM.
“AOA-RPHFPQF-pY-SASGTA ({AOA}-RPHFPQF[pY]SASGTA) [PEP5]”: binding was characterised by a dissociation constant (Kd) of 0.04 nM.
